{
  "source": "patent US20160235824A1",
  "about": "“Compositions and Methods for Increasing the Half-Life of Factor XA” (THE CHILDREN'S HOSPITAL OF PHILADELPHIA, priority 2013, published 2016)",
  "key": {"citrated human blood": {"tested_on": "citrated human blood", "experiment": "rotational thromboelastography (ROTEM) in whole blood", "conditions": "250 nM apixaban alone vs untreated (PBS) control blood", "procedure": "FIG. 2 provides a graph of rotational thromboelastograms performed using freshly collected, citrated human blood treated with 25 μg/mL corn trypsin inhibitor (to minimize variation in samples). […] Phosphate buffered saline (PBS) was added to one sample instead of apixaban […].\nA coagulation initiator is added, and as the blood clots, rotation of the pin is restricted, which is detected optically by the instrument."}, "[1]": {"conditions": "cited from earlier work"}, "[2]": {"experiment": "tail-clip hemostasis experiments in mice", "assay_type": "in vivo"}, "[3]": {"tested_on": "normal human platelet poor plasma (PPP)", "experiment": "thrombin generation assay (TGA) in platelet poor plasma", "assay_type": "biochemical"}, "[4]": {"molecular_target": "FXa-antithrombin III (FXa-ATIII) complex (Homo sapiens, UniProt P00742)", "sequence (P00742 235-488 limits assumed)": "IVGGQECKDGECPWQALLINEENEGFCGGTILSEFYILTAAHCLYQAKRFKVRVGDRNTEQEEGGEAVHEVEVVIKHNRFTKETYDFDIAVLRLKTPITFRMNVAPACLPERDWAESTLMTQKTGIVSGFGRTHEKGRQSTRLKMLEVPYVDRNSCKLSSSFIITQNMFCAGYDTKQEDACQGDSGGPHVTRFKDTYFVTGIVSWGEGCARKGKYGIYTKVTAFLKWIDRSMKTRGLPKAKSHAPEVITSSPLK", "sequence (P00742 41-179 limits assumed)": "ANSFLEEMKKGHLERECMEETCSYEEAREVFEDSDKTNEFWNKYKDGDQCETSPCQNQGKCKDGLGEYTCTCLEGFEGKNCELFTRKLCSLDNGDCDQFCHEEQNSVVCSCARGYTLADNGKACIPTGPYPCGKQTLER", "experiment": "FXa-antithrombin III complex formation in FX deficient plasma (ELISA)", "assay_type": "biochemical", "conditions": "100 nM or 1 μM rivaroxaban"}},
  "note": "Entries after “also recorded” stand apart in the source; their conditions may differ.",
  "data": [
    {"compound": "COc1ccc(-n2nc(C(N)=O)c3c2C(=O)N(c2ccc(N4CCCCC4=O)cc2)CC3)cc1", "note": "[apixaban]", "values": [
      {"measurement": "effect on clot time", "setting": "citrated human blood", "result": "prolonged the clot time"},
      {"measurement": "effect on clot time", "setting": "citrated human blood; listed as Apixaban", "result": "prolonged the clot time substantially"},
      {"measurement": "plasma protein binding", "setting": "[1]", "result": "heavily protein-bound"}
    ]},
    {"compound": "O=C(NC[C@H]1CN(c2ccc(N3CCOCC3=O)cc2)C(=O)O1)c1ccc(Cl)s1", "note": "[rivaroxaban]", "values": [
      {"measurement": "blood loss", "setting": "[2]; 50 mg/kg rivaroxaban alone", "result": "217 % of normal"},
      {"measurement": "effect on blood loss", "setting": "[2]; rivaroxaban alone", "result": "dose-dependently increased blood loss"},
      {"measurement": "plasma protein binding", "setting": "[1]", "result": "heavily protein-bound"},
      {"measurement": "peak thrombin generation", "setting": "[3]; 500 nM rivaroxaban alone", "result": "~10 % of normal"},
      {"measurement": "effect on thrombin generation", "setting": "[3]; 2.5 μM rivaroxaban alone", "result": "completely abrogated thrombin generation"},
      {"measurement": "effect on thrombin generation", "setting": "[3]; inhibitor alone added to normal human plasma (PPP)", "result": "profoundly decrease thrombin generation; also recorded: dose-dependently inhibited thrombin generation"},
      {"measurement": "effect on FXa-ATIII complex formation", "setting": "[4]", "result": "dose-dependently inhibited"}
    ]}
  ]
}
